From ChEMBL document CHEMBL1126821, “A systematic evaluation of the inhibition of HIV-1 protease by its C- and N-terminal peptides” (Bioorg Med Chem Lett, 1993) come the findings set out here.

Molecules are shown by their SMILES. Residues, ends and D or L forms follow the SMILES beside them.

The target of this assay is Human immunodeficiency virus type 1 protease (Human immunodeficiency virus 1) (UniProt Q72874). Description: Inhibitory activity against HIV-1 protease at 100 uM.
On to `CC(=O)NCC(=O)N[C@@H](CO)C(=O)N[C@H](C(=O)N[C@@H](CC(C)C)C(=O)N[C@@H](CC(N)=O)C(=O)N[C@@H](Cc1ccccc1)C(=O)O)[C@@H](C)O` (Ac-GSTLNF-OH), for which the inhibition – broadly, the change of the read-out against control, counted positive when it falls – turned out to be 4.6%.
Next, `CC[C@H](C)[C@H](NC(=O)[C@H](CCC(N)=O)NC(C)=O)C(=O)NCC(=O)N[C@@H](CO)C(=O)N[C@H](C(=O)N[C@@H](CC(C)C)C(=O)N[C@@H](CC(N)=O)C(=O)N[C@@H](Cc1ccccc1)C(=O)O)[C@@H](C)O` (Ac-QIGSTLNF-OH): 34.6%.
The figure for `CC[C@H](C)[C@H](NC(C)=O)C(=O)NCC(=O)N[C@@H](CO)C(=O)N[C@H](C(=O)N[C@@H](CC(C)C)C(=O)N[C@@H](CC(N)=O)C(=O)N[C@@H](Cc1ccccc1)C(=O)O)[C@@H](C)O` (Ac-IGSTLNF-OH) is 12.6%; for `CC(=O)N[C@H](C(=O)N[C@@H](CC(C)C)C(=O)N[C@@H](CC(N)=O)C(=O)N[C@@H](Cc1ccccc1)C(=O)O)[C@@H](C)O` (Ac-TLNF-OH) it is 3.9%.
The figure for `CC[C@H](C)[C@H](NC(=O)[C@H](CCC(N)=O)NC(=O)[C@@H]1CCCN1C(C)=O)C(=O)N[C@H](C(=O)N[C@@H](CC(C)C)C(=O)N[C@@H](Cc1c[nH]c2ccccc12)C(=O)N[C@@H](CCC(N)=O)C(=O)O)[C@@H](C)O` (Ac-PQITLWQ-OH) is 26%; for `CC(=O)N[C@@H](CO)C(=O)N[C@H](C(=O)N[C@@H](CC(C)C)C(=O)N[C@@H](CC(N)=O)C(=O)N[C@@H](Cc1ccccc1)C(=O)O)[C@@H](C)O` (Ac-STLNF-OH) it is 37.2%.
With `CC[C@H](C)[C@H](NC(=O)[C@H](CCC(N)=O)NC(=O)[C@@H]1CCCN1C(C)=O)C(=O)N[C@H](C(=O)N[C@@H](CC(C)C)C(=O)N[C@@H](Cc1c[nH]c2ccccc12)C(=O)O)[C@@H](C)O` (Ac-PQITLW-OH), the inhibition was 28.1%.
The figure for `CC[C@H](C)[C@H](NC(=O)[C@H](CCC(N)=O)NC(=O)[C@@H]1CCCN1)C(=O)N[C@H](C(=O)N[C@@H](CC(C)C)C(=O)N[C@@H](Cc1c[nH]c2ccccc12)C(=O)N[C@@H](CCC(N)=O)C(=O)O)[C@@H](C)O` (H-PQITLWQ-OH) is 1.3%; for `CC[C@H](C)[C@H](NC(=O)[C@H](CCC(N)=O)NC(=O)[C@@H]1CCCN1)C(=O)N[C@H](C(=O)N[C@@H](CC(C)C)C(=O)O)[C@@H](C)O` (H-PQITL-OH) it is 5.6%; for `CC[C@H](C)[C@H](NC(=O)[C@H](CCC(N)=O)NC(=O)[C@@H]1CCCN1C(C)=O)C(=O)N[C@H](C(=O)N[C@@H](CC(C)C)C(=O)O)[C@@H](C)O` (Ac-PQITL-OH) it is -1.4%.
The figure for `CC[C@H](C)[C@H](NC(=O)[C@H](CCC(N)=O)NC(=O)[C@@H]1CCCN1)C(=O)N[C@H](C(=O)N[C@@H](CC(C)C)C(=O)N[C@@H](Cc1c[nH]c2ccccc12)C(=O)O)[C@@H](C)O` (H-PQITLW-OH) is 39.9%.
